Test results: patent US6410558B1, “Fungicides for the control of take-all disease of plants” (Monsanto Technology LLC, priority 1991, dated 2002)

Tested on: Gaeumannomyces graminis var. tritici (Ggt)
Assay: In vitro Assay: mycelial growth of Ggt on minimal media agar plates containing test compound
Assay type: cell-based
Details: dark, 19-20° C., 4 to 5 days, diameter of mycelial growth; for inhibition at 0.1 ppm / inhibition at 1 ppm / inhibition at 10 ppm: Gaeumannomyces graminis; for inhibition at 0.1 ppm: read-out: In vitro (ppm) 0.1, Percent Inhibition; for inhibition at 1 ppm: read-out: In vitro (ppm) 1, Percent Inhibition; for inhibition at 10 ppm: read-out: In vitro (ppm) 10, Percent Inhibition
Summary of the method: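 Ggt mycelial diameter read after 4 to 5 days in darkness at 19-20° C, from three 4-mm plugs placed on Czapek Dox minimal agar containing test compound delivered in acetone. Inhibition expressed as percent versus untreated plates, plug size (4 mm) subtracted from both.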

`CCN(C(=O)c1c(Cl)cccc1[Si](C)(C)C)c1ccccc1` [Example 24, 2-Chloro-N-ethyl-N-phenyl-6-(trimethylsilyl)benzamide] was tested, and the inhibition at 0.1 ppm (0.1 ppm in minimal media agar) was < 0%, the inhibition at 1 ppm (1 ppm in minimal media agar) was < 0% and the inhibition at 10 ppm (10 ppm in minimal media agar) was 100%.
In the case of `CCNC(=O)c1c(F)cccc1[S+]([O-])C(C)(C)C` (stereo not drawn) [Example 194, 2-[(1,1-Dimethylethyl)sulfinyl]-N-ethyl-6-fluorobenzamide], the inhibition at 0.1 ppm (0.1 ppm in minimal media agar) is reported as 82%, the inhibition at 1 ppm (1 ppm in minimal media agar) is reported as 100% and the inhibition at 10 ppm (10 ppm in minimal media agar) is reported as 100%.
With `CC(C)NC(=O)c1c(F)cccc1[S+]([O-])C(C)(C)C` (stereo not drawn) [Example 196, N-(1-Methylethyl)-2-[(1,1-dimethylethyl)sulfinyl]-6-fluorobenzamide] the inhibition at 0.1 ppm (0.1 ppm in minimal media agar) was 3%, the inhibition at 1 ppm (1 ppm in minimal media agar) was 56% and the inhibition at 10 ppm (10 ppm in minimal media agar) was 100%.
`CCN(CC)C(=O)c1c(Cl)cc(C)cc1[Si](C)(C)C` [Example 59, N,N-Diethyl-2-chloro-4-methyl-6-(trimethylsilyl)benzamide] was tested, and the inhibition at 0.1 ppm (0.1 ppm in minimal media agar) was 6%, the inhibition at 1 ppm (1 ppm in minimal media agar) was < 0% and the inhibition at 10 ppm (10 ppm in minimal media agar) was 26%.
For `CCN(C(=O)c1ccccc1C(C)(C)C)C(OC)C(C)(C)C` (stereo not drawn) [Example 186, 2-(1,1-Dimethylethyl)-N-ethyl-N-(1-methoxy-2,2-dimethylpropyl)benzamide], the inhibition at 0.1 ppm (0.1 ppm in minimal media agar) was < 0%, the inhibition at 1 ppm (1 ppm in minimal media agar) was < 0% and the inhibition at 10 ppm (10 ppm in minimal media agar) was 67%.
`CCN(CC)C(=O)c1c(C(=O)OC)ccc(F)c1[Si](C)(C)C` [Example 42, 2-[(Diethylamino)carbonyl]-4-fluoro-3-(trimethylsilyl)benzoic acid, methyl ester] was tested, and the inhibition at 0.1 ppm (0.1 ppm in minimal media agar) was < 0%, the inhibition at 1 ppm (1 ppm in minimal media agar) was < 0% and the inhibition at 10 ppm (10 ppm in minimal media agar) was 30%.
Compound `CCNC(=O)c1oc([Si](C)(C)C)cc1[Si](C)(C)C` [Example 251, N-Ethyl-3,5-bis(trimethylsilyl)-2-furancarboxamide] has an inhibition at 0.1 ppm (0.1 ppm in minimal media agar) of 3%, an inhibition at 1 ppm (1 ppm in minimal media agar) of 36% and an inhibition at 10 ppm (10 ppm in minimal media agar) of 97%.
With `CCN(CC)C(=O)c1c(C(=O)OC(C)C)ccc(F)c1[Si](C)(C)C` [Example 43, 2-[(Diethylamino)carbonyl]-4-fluoro-3-(trimethylsilyl)benzoic acid, 1-methylethyl ester] the inhibition at 0.1 ppm (0.1 ppm in minimal media agar) was < 0%, the inhibition at 1 ppm (1 ppm in minimal media agar) was < 0% and the inhibition at 10 ppm (10 ppm in minimal media agar) was 63%.
`C[Si](C)(C)c1cccc(Cl)c1C(=O)NC1CCCCC1` [Example 129, 2-Chloro-N-cyclohexyl-6-(trimethylsilyl)benzamide] was tested, and the inhibition at 0.1 ppm (0.1 ppm in minimal media agar) was 9%, the inhibition at 1 ppm (1 ppm in minimal media agar) was 35% and the inhibition at 10 ppm (10 ppm in minimal media agar) was 26%.
For `CCOCCN(CC)C(=O)c1c(Cl)cccc1[Si](C)(C)C` [Example 128, 2-Chloro-N-(2-ethoxyethyl)-N-ethyl-6-(trimethylsilyl)benzamide], the inhibition at 0.1 ppm (0.1 ppm in minimal media agar) was 4%, the inhibition at 1 ppm (1 ppm in minimal media agar) was 8% and the inhibition at 10 ppm (10 ppm in minimal media agar) was 50%.
With `CCNC(=O)c1c([Si](C)(C)C)ccc(-c2ccccc2)c1Cl` [Example 242, 2-Chloro-N-ethyl-3-phenyl-6-(trimethylsilyl)benzamide] the inhibition at 0.1 ppm (0.1 ppm in minimal media agar) was 27%, the inhibition at 1 ppm (1 ppm in minimal media agar) was < 0% and the inhibition at 10 ppm (10 ppm in minimal media agar) was 67%.
For `C[Si](C)(C)c1cccc(Cl)c1C(=O)NCc1ccc([N+](=O)[O-])cc1` [Example 137, 2-Chloro-N-[(4-nitrophenyl)-methyl]-6-(trimethylsilyl)-benzamide], the inhibition at 0.1 ppm (0.1 ppm in minimal media agar) was 17%, the inhibition at 1 ppm (1 ppm in minimal media agar) was 61% and the inhibition at 10 ppm (10 ppm in minimal media agar) was 100%.
Compound `C[Si](C)(C)c1cccc(Cl)c1C(=O)NCc1cccc([N+](=O)[O-])c1` [Example 141, 2-Chloro-N-[(3-nitrophenyl)-methyl]-6-(trimethylsilyl)-benzamide] has an inhibition at 0.1 ppm (0.1 ppm in minimal media agar) of 19%, an inhibition at 1 ppm (1 ppm in minimal media agar) of 64% and an inhibition at 10 ppm (10 ppm in minimal media agar) of 100%.
`CCCCCCCC[Si](C)(C)c1cccc(Cl)c1C(=O)NCC` [Example 182, 2-Chloro-6-(dimethyloctylsilyl)-N-ethylbenzamide] was tested, and the inhibition at 0.1 ppm (0.1 ppm in minimal media agar) was 30%, the inhibition at 1 ppm (1 ppm in minimal media agar) was 58% and the inhibition at 10 ppm (10 ppm in minimal media agar) was 73%.
`C[Si](C)(C)c1cccc(Cl)c1NC(=O)C(Cl)(Cl)Cl` [Example 175, 2,2,2-Trichloro-N-[2-chloro-6-(trimethylsilyl)phenyl]acetamide] gave an inhibition at 0.1 ppm (0.1 ppm in minimal media agar) of 35%, an inhibition at 1 ppm (1 ppm in minimal media agar) of 48% and an inhibition at 10 ppm (10 ppm in minimal media agar) of 60%.
`CCN(CC)C(=O)c1ccc(C)c(F)c1[Si](C)(C)C` [Example 57, N,N-Diethyl-3-fluoro-4-methyl-2-(trimethylsilyl)benzamide] was tested, and the inhibition at 0.1 ppm (0.1 ppm in minimal media agar) was 10%, the inhibition at 1 ppm (1 ppm in minimal media agar) was < 0% and the inhibition at 10 ppm (10 ppm in minimal media agar) was 90%.
For `CCNC(=O)c1cnn(C)c1[Si](C)(C)C` [Example 288, N-Ethyl-1-methyl-5-(trimethylsilyl)-1H-pyrazole-4-carboxamide], the inhibition at 0.1 ppm (0.1 ppm in minimal media agar) was < 0%, the inhibition at 1 ppm (1 ppm in minimal media agar) was < 0% and the inhibition at 10 ppm (10 ppm in minimal media agar) was 53%.
In the case of `CCN(C(=O)c1cc(N(C)C)ccc1[Si](C)(C)C)C(OC)C(C)(C)C` (stereo not drawn) [Example 222, 5-(Dimethylamino)-N-ethyl-N-(1-methoxy-2,2-dimethylpropyl)-2-(trimethylsilyl)benzamide], the inhibition at 0.1 ppm (0.1 ppm in minimal media agar) is reported as < 0%, the inhibition at 1 ppm (1 ppm in minimal media agar) is reported as < 0% and the inhibition at 10 ppm (10 ppm in minimal media agar) is reported as 96%.
For `C[Si](C)(C)c1cc(Cl)sc1C(=O)NCCCl` [Example 264, 5-Chloro-N-(2-chloroethyl)-3-(trimethylsilyl)-2-thiophenecarboxamide], the inhibition at 0.1 ppm (0.1 ppm in minimal media agar) was 2%, the inhibition at 1 ppm (1 ppm in minimal media agar) was 88% and the inhibition at 10 ppm (10 ppm in minimal media agar) was 100%.
With `CC(C)N(O)C(=O)c1sc(Cl)cc1[Si](C)(C)C` [Example 287, 5-Chloro-N-hydroxy-N-(1-methylethyl)-3-(trimethylsilyl)-2-thiophenecarboxamide] the inhibition at 0.1 ppm (0.1 ppm in minimal media agar) was 64%, the inhibition at 1 ppm (1 ppm in minimal media agar) was 71% and the inhibition at 10 ppm (10 ppm in minimal media agar) was 78%.
`CCNC(=O)c1cccc([N+](=O)[O-])c1[Si](C)(C)C` [Example 246, N-Ethyl-3-nitro-2-(trimethylsilyl)benzamide] was tested, and the inhibition at 0.1 ppm (0.1 ppm in minimal media agar) was < 0%, the inhibition at 1 ppm (1 ppm in minimal media agar) was 2% and the inhibition at 10 ppm (10 ppm in minimal media agar) was 61%.
`CCNC(=O)c1sc(I)cc1[Si](C)(C)C` [Example 257, N-Ethyl-5-iodo-3-(trimethylsilyl)-2-thiophenecarboxamide] gave an inhibition at 0.1 ppm (0.1 ppm in minimal media agar) of 3%, an inhibition at 1 ppm (1 ppm in minimal media agar) of 23% and an inhibition at 10 ppm (10 ppm in minimal media agar) of 100%.
Compound `CCNC(=O)c1c(Cl)cccc1-c1cccc2ccccc12` [Example 73, 2-Chloro-N-ethyl-6-(1-naphthalenyl)benzamide] has an inhibition at 0.1 ppm (0.1 ppm in minimal media agar) of 13%, an inhibition at 1 ppm (1 ppm in minimal media agar) of 60% and an inhibition at 10 ppm (10 ppm in minimal media agar) of 83%.
`C[Si](C)(C)c1cccc(I)c1C(=O)NC1CC1` [Example 209, N-Cyclopropyl-2-iodo-6-(trimethylsilyl)benzamide] showed an inhibition at 0.1 ppm (0.1 ppm in minimal media agar) of 28%, an inhibition at 1 ppm (1 ppm in minimal media agar) of 90% and an inhibition at 10 ppm (10 ppm in minimal media agar) of 100%.
Compound `CCNC(=O)c1c(Br)csc1[Si](C)(C)C` [Example 267, 4-Bromo-N-ethyl-2-(trimethylsilyl)-3-thiophenecarboxamide] has an inhibition at 0.1 ppm (0.1 ppm in minimal media agar) of 18%, an inhibition at 1 ppm (1 ppm in minimal media agar) of 64% and an inhibition at 10 ppm (10 ppm in minimal media agar) of 61%.
Work on `CN(Cc1ccc(C(C)(C)C)cc1)C(=O)c1c(Cl)cccc1[Si](C)(C)C` [Example 101, 2-Chloro-N-[[4-(1,1-dimethylethyl)phenyl]methyl]-N-methyl-6-(trimethylsilyl)-benzamide] yielded an inhibition at 0.1 ppm (0.1 ppm in minimal media agar) of 10%, an inhibition at 1 ppm (1 ppm in minimal media agar) of 21% and an inhibition at 10 ppm (10 ppm in minimal media agar) of 62%.
`CC(C)N(C(=O)c1c(Cl)cccc1[Si](C)(C)C)C(C)C` [Example 126, 2-Chloro-N,N-bis(1-methylethyl)-6-(trimethylsilyl)benzamide] gave an inhibition at 0.1 ppm (0.1 ppm in minimal media agar) of 15%, an inhibition at 1 ppm (1 ppm in minimal media agar) of 4% and an inhibition at 10 ppm (10 ppm in minimal media agar) of 93%.
For `CCN(CC)C(=O)c1c(C)cc(C)cc1[Si](C)(C)C` [Example 60, N,N-Diethyl-2,4-dimethyl-6-(trimethylsilyl)benzamide], the inhibition at 0.1 ppm (0.1 ppm in minimal media agar) was < 0%, the inhibition at 1 ppm (1 ppm in minimal media agar) was < 0% and the inhibition at 10 ppm (10 ppm in minimal media agar) was 19%.
`CCN(COC)C(=O)c1c(Cl)cccc1[Si](C)(C)C` [Example 46, 2-Chloro-N-ethyl-N-(methoxymethyl)-6-(trimethylsilyl)benzamide] was tested, and the inhibition at 0.1 ppm (0.1 ppm in minimal media agar) was 15%, the inhibition at 1 ppm (1 ppm in minimal media agar) was 11% and the inhibition at 10 ppm (10 ppm in minimal media agar) was 44%.
In the case of `C[Si](C)(C)c1cccc(Cl)c1C(=O)NCc1ccncc1` [Example 145, 2-Chloro-N-(4-pyridinylmethyl)-6-(trimethylsilyl)benzamide], the inhibition at 0.1 ppm (0.1 ppm in minimal media agar) is reported as < 0%, the inhibition at 1 ppm (1 ppm in minimal media agar) is reported as < 0% and the inhibition at 10 ppm (10 ppm in minimal media agar) is reported as 27%.
For `C[Si](C)(C)c1cccc(Cl)c1C(=O)Nc1ccccc1C1CCCC1` [Example 158, 2-Chloro-N-(2-cyclopentylphenyl)-6-(trimethylsilyl)benzamide], the inhibition at 0.1 ppm (0.1 ppm in minimal media agar) was 2%, the inhibition at 1 ppm (1 ppm in minimal media agar) was 33% and the inhibition at 10 ppm (10 ppm in minimal media agar) was 44%.
In the case of `C[Si](C)(C)c1cccc(Cl)c1C(=O)N1CC=CCC1` [Example 148, 1-[2-Chloro-6-(trimethylsilyl)benzoyl]-1,2,3,6-(tetrahydro)pyridine], the “In vitro (ppm) 0.1, Percent Inhibition” value (0.1 ppm in minimal media agar) is reported as “N (If the calculation resulted in “0” or less, as compared to the untreated control, a “N” is shown to indicate no control.)”, the “In vitro (ppm) 1, Percent Inhibition” value (1 ppm in minimal media agar) is reported as “N (If the calculation resulted in “0” or less, as compared to the untreated control, a “N” is shown to indicate no control.)” and the “In vitro (ppm) 10, Percent Inhibition” value (10 ppm in minimal media agar) is reported as 53%.
`C[Si](C)(C)c1ccc(F)c([Si](C)(C)C)c1C(=O)N1CCCC1` [Example 118, 1-[3-Fluoro-2,6-bis(trimethylsilyl)benzoyl]pyrrolidine] was tested, and the inhibition at 0.1 ppm (0.1 ppm in minimal media agar) was < 0%, the inhibition at 1 ppm (1 ppm in minimal media agar) was < 0% and the inhibition at 10 ppm (10 ppm in minimal media agar) was 38%.
